This note sets out measurements from patent publication US20050197350A1, “Novel quinoline, tetrahydroquinazoline, and pyrimidine derivatives and methods of treatment related to the use thereof” (TAISHO PHARMACEUTICAL CO., LTD., priority 2003, published 2005).

One experiment relates to MCH receptors. Kind of experiment: MCH receptor activity class (method not given). The following applies: MCH receptor activity class 1-3 (percent of control at 10^-7 M or IC50).
Regarding `CN(C)c1cc(N[C@H]2CC[C@@H](CNC(=O)Nc3ccccc3C(F)(F)F)CC2)nc2ccccc12` [compound 2366], the class is recorded as 3 (Class 3 The value of percent of control at 10^−7 M was more than 60% or the value of IC50 was more than 200 nM.).

Regarding `CN(C)c1cc(N[C@H]2CC[C@@H](CNC(=O)NCc3ccccc3Cl)CC2)nc2ccccc12` [compound 2375], the class was 3 (Class 3 The value of percent of control at 10^−7 M was more than 60% or the value of IC50 was more than 200 nM.).

`Cc1cccc(C(C)C)c1NC(=S)N[C@H]1CC[C@@H](Nc2cc(N(C)C)c3ccccc3n2)CC1` [compound 2303]: the class is 3 (Class 3 The value of percent of control at 10^−7 M was more than 60% or the value of IC50 was more than 200 nM.).

The same experiment, now with this note: MCH receptor; class by percent of control at 10^-7 M or IC50.
As for `CCN(CC)CCCNC(=S)N[C@H]1CC[C@@H](Nc2nc3c(c(N(C)C)n2)CCCC3)CC1` [compound 2073], the class is given as 3 (Class 3 The value of percent of control at 10^−7 M was more than 60% or the value of IC50 was more than 200 nM.).

`CN(C)c1cc(N[C@H]2CC[C@@H](CNC(=O)c3cccc(Cl)c3)CC2)nc2ccccc12` [compound 151]: the class is listed as 3 (Class 3 The value of percent of control at 10^−7 M was more than 60% or the value of IC50 was more than 200 nM.).

Staying with this experiment, now noted: activity class 1-3: percent of control at 10^-7 M or IC50.
For `CN(C)c1ccnc(N[C@H]2CC[C@@H](CNCCCC#Cc3ccccc3)CC2)n1` [compound 1530], the class is given as 3 (Class 3 The value of percent of control at 10^−7 M was more than 60% or the value of IC50 was more than 200 nM.).

Consider `CN(C)c1ccnc(N[C@H]2CC[C@@H](NC(=O)OCC3c4ccccc4-c4ccccc43)CC2)n1` [compound 1637], for which the class is recorded as 3 (Class 3 The value of percent of control at 10^−7 M was more than 60% or the value of IC50 was more than 200 nM.).

In the case of `COc1ccccc1OC(=O)N[C@H]1CC[C@@H](Nc2nccc(N(C)C)n2)CC1` [compound 1624], the class is recorded as 3 (Class 3 The value of percent of control at 10^−7 M was more than 60% or the value of IC50 was more than 200 nM.).

Turning to `CCCCCCCCOC(=O)N[C@H]1CC[C@@H](Nc2cc(N(C)C)c3ccccc3n2)CC1` [compound 1546], the class is reported as 3 (Class 3 The value of percent of control at 10^−7 M was more than 60% or the value of IC50 was more than 200 nM.).

The experiment is the same for the next values; noted with them: activity class per percent of control at 10^-7 M or IC50.
On to `C[C@H](C(=O)N[C@H]1CC[C@@H](Nc2nc3c(c(N(C)C)n2)CCCC3)CC1)c1cccc(C(=O)c2ccccc2)c1` [compound 1014], for which the class is 3 (Class 3 The value of percent of control at 10^−7 M was more than 60% or the value of IC50 was more than 200 nM.).

With `Cc1ccc(C(=O)c2ccccc2C(=O)N[C@H]2CC[C@@H](Nc3nc4c(c(N(C)C)n3)CCCC4)CC2)cc1` [compound 1035], the class was 3 (Class 3 The value of percent of control at 10^−7 M was more than 60% or the value of IC50 was more than 200 nM.).

The same experiment, now with this note: class 1-3 by percent of control at 10^-7 M or IC50.
For the molecule `CN(C)c1ccnc(N[C@H]2CC[C@@H](CNC(=O)c3ccc(-c4ccccc4)cc3)CC2)n1` [compound 437], the class is given as 3 (Class 3 The value of percent of control at 10^−7 M was more than 60% or the value of IC50 was more than 200 nM.).

`CN(C)c1ccnc(N[C@H]2CC[C@@H](CNC(=O)c3c(F)cccc3C(F)(F)F)CC2)n1` [compound 448]: the class is recorded as 3 (Class 3 The value of percent of control at 10^−7 M was more than 60% or the value of IC50 was more than 200 nM.).

As for `CN(C)c1nc(N[C@H]2CC[C@@H](NC(=O)c3ccc(F)c(C(F)(F)F)c3)CC2)nc2c1CCCC2` [compound 542], the class was 1 (Class 1: The value of percent of control at 10^−7 M was less than 40% or the value of IC50 was less than 50 nM.).

Regarding `CN(C)c1nc(N[C@H]2CC[C@@H](NC(=O)Cc3ccccc3)CC2)nc2c1CCCC2` [compound 481], the class is reported as 3 (Class 3 The value of percent of control at 10^−7 M was more than 60% or the value of IC50 was more than 200 nM.).

As for `CN(C)c1nc(N[C@H]2CC[C@@H](NC(=O)c3csc4ccccc34)CC2)nc2c1CCCC2` [compound 527], the class is given as 3 (Class 3 The value of percent of control at 10^−7 M was more than 60% or the value of IC50 was more than 200 nM.).

Consider `CN(C)c1nc(N[C@H]2CC[C@@H](NC(=O)c3ccc(OC(F)(F)F)c(Cl)c3)CC2)nc2c1CCCC2` [compound 579], for which the class was 3 (Class 3 The value of percent of control at 10^−7 M was more than 60% or the value of IC50 was more than 200 nM.).

In the case of `CN(C)c1nc(N[C@H]2CC[C@@H](CNC(=O)c3cccc(Cl)c3)CC2)nc2c1CCCC2` [compound 586], the class is 3 (Class 3 The value of percent of control at 10^−7 M was more than 60% or the value of IC50 was more than 200 nM.).

On to `COc1cc(OC)cc(C(=O)N[C@H]2CC[C@@H](Nc3nc4c(c(N(C)C)n3)CCCC4)CC2)c1` [compound 512], for which the class is 1 (Class 1: The value of percent of control at 10^−7 M was less than 40% or the value of IC50 was less than 50 nM.).

Staying with this experiment, now noted: class by percent of control at 10^-7 M or IC50.
For the molecule `CN(C)c1cc(N[C@H]2CC[C@@H](NC(=O)c3cc(C(C)(C)C)c(O)c(C(C)(C)C)c3)CC2)nc2ccccc12` [compound 787], the class is on record as 3 (Class 3 The value of percent of control at 10^−7 M was more than 60% or the value of IC50 was more than 200 nM.).

Consider `CCCc1c(CNC[C@H]2CC[C@@H](Nc3nc4c(c(N(C)C)n3)CCCC4)CC2)cnn1-c1ccc(Cl)cc1` [compound 1511], for which the class is listed as 1 (Class 1: The value of percent of control at 10^−7 M was less than 40% or the value of IC50 was less than 50 nM.).

As for `CN(C)c1ccnc(N[C@H]2CC[C@@H](CNC(=O)c3cccc(OC(F)(F)F)c3)CC2)n1` [compound 399], the class was 3 (Class 3 The value of percent of control at 10^−7 M was more than 60% or the value of IC50 was more than 200 nM.).

For `CN(C)c1cc(N[C@H]2CC[C@@H](NC(=S)NCc3ccccc3Cl)CC2)nc2ccccc12` [compound 2279], the class was 3 (Class 3 The value of percent of control at 10^−7 M was more than 60% or the value of IC50 was more than 200 nM.).

Turning to `CN(C)c1ccnc(N[C@H]2CC[C@@H](NC(=S)Nc3ccc(Cl)cc3Cl)CC2)n1` [compound 2259], the class is reported as 3 (Class 3 The value of percent of control at 10^−7 M was more than 60% or the value of IC50 was more than 200 nM.).

Consider `COc1ccc2[nH]c(C)c(CC(=O)N[C@H]3CC[C@@H](Nc4nccc(N(C)C)n4)CC3)c2c1` [compound 821], for which the class is given as 3 (Class 3 The value of percent of control at 10^−7 M was more than 60% or the value of IC50 was more than 200 nM.).

Consider `CCO[Si](CCCNC(=O)N[C@H]1CC[C@@H](Nc2nc3c(c(N(C)C)n2)CCCC3)CC1)(OCC)OCC` [compound 1839], for which the class is 3 (Class 3 The value of percent of control at 10^−7 M was more than 60% or the value of IC50 was more than 200 nM.).

`CN(C)c1ccnc(NC2CCC(NC(=O)OCc3ccccc3)CC2)n1` (centres unmarked) [compound 273]: the class is reported as 3 (Class 3 The value of percent of control at 10^−7 M was more than 60% or the value of IC50 was more than 200 nM.).

Regarding `COc1ccc(CNC[C@H]2CC[C@@H](Nc3nccc(N(C)C)n3)CC2)cc1C` [compound 1311], the class was 2 (Class 2: The value of percent of control at 10^−7 M was from 40% to 60% or the value of IC′50 was from 50 nM to 200 nM.).

Take `CC(C(=O)N[C@H]1CC[C@@H](Nc2cc(N(C)C)c3ccccc3n2)CC1)c1ccc(-c2ccccc2)c(F)c1` (relative stereo) [compound 708]: the class is given as 3 (Class 3 The value of percent of control at 10^−7 M was more than 60% or the value of IC50 was more than 200 nM.).

`CN(C)c1ccnc(N[C@H]2CC[C@@H](NC(=O)c3sc(Cl)c(Cl)c3Cl)CC2)n1` [compound 350]: the class is 3 (Class 3 The value of percent of control at 10^−7 M was more than 60% or the value of IC50 was more than 200 nM.).

As for `CN(C)c1ccnc(N[C@H]2CC[C@@H](CNC(=O)c3cccc(Cl)c3)CC2)n1` [compound 369], the class is on record as 3 (Class 3 The value of percent of control at 10^−7 M was more than 60% or the value of IC50 was more than 200 nM.).

As for `COc1ccc(F)cc1CNC[C@H]1CC[C@@H](Nc2nccc(N(C)C)n2)CC1` [compound 1294], the class is reported as 3 (Class 3 The value of percent of control at 10^−7 M was more than 60% or the value of IC50 was more than 200 nM.).

As to `COc1ccc(NC(=O)N[C@H]2CC[C@@H](Nc3cc(N(C)C)c4ccccc4n3)CC2)cc1Cl` [compound 2151], the class was 3 (Class 3 The value of percent of control at 10^−7 M was more than 60% or the value of IC50 was more than 200 nM.).

For `Cc1ccc2occ(CN[C@H]3CC[C@@H](Nc4nc5c(c(N(C)C)n4)CCCC5)CC3)c(=O)c2c1` [compound 1348], the class is 3 (Class 3 The value of percent of control at 10^−7 M was more than 60% or the value of IC50 was more than 200 nM.).

The experiment is the same for the next values; noted with them: class by percent of control at 10^−7 M or IC50.
As for `COc1cccc(C(=O)N[C@H]2CC[C@@H](Nc3ncc(C)c(N(C)C)n3)CC2)c1` [compound 2938, N-(cis-4-{[4-(dimethylamino)-5-methylpyrimidin-2-yl]amino}cyclohexyl)-3-methoxybenzamide], the class is on record as 1 (Class 1: The value of percent of control at 10^−7 M was less than 40% or the value of IC50 was less than 50 nM.).

Turning to `Cc1cnc(N[C@H]2CC[C@@H](NC(=O)CN(C)c3ccc(F)c(F)c3)CC2)nc1N(C)C` [compound 2946], the class is recorded as 1 (Class 1: The value of percent of control at 10^−7 M was less than 40% or the value of IC50 was less than 50 nM.).

For `COc1ccc(C(=O)NC[C@H]2CC[C@@H](Nc3nc(C)cc(N(C)C)n3)CC2)cc1` [compound 2754], the class is reported as 3 (Class 3 The value of percent of control at 10^−7 M was more than 60% or the value of IC50 was more than 200 nM.).

Consider `CCc1cccc(C(=O)N[C@H]2CC[C@@H](Nc3nc(C)cc(N(C)C)n3)CC2)c1` [compound 2970, N-(cis-4-{[4-(dimethylamino)-6-methylpyrimidin-2-yl]amino}cyclohexyl)-3-ethylbenzamide], for which the class is 3 (Class 3 The value of percent of control at 10^−7 M was more than 60% or the value of IC50 was more than 200 nM.).
